Source: US8895568B2, “Compositions comprising substituted pteridines as agrochemicals” (Dow AgroSciences LLC, priority 2009, dated 2014)

Experiments:
Assay type in all cases: in vivo
[1] = test system: Pseudoperonospora cubensis; test: Cucumber Downy Mildew (PSPECU), foliar spray, percent disease control; details: foliar, read-out: PSPECU percent control
Cochliobolus sativus = test: Spot Blotch of Wheat (COCHSA), foliar spray, percent disease control; details: Bipolaris sorokiniana, foliar; read-out: COCHSA percent control
[2] = test system: DROSME, AEDSAE, LAPHEG, or HELIVI; test: Insecticidal activity, active if any of DROSME, AEDSAE, LAPHEG or HELIVI was controlled at 80% or more; details: read-out: >80% mortality on any insect species @ 4000 ppm
Colletotricum lagenarium = test: Cucumber Anthracnose (COLLLA), foliar spray, percent disease control; details: foliar

SMILES | pest or weed control at 200 µg/mL [1] | pest or weed control at 200 µg/mL (Cochliobolus sativus) | pest or weed control at 4000 ppm [2] | pest or weed control at 200 µg/mL (Colletotricum lagenarium)
FC(F)(F)COc1cccc(Oc2ccc(CCNc3ncnc4nccnc34)cc2)n1 [Compound 11, Pteridin-4-yl-(2-{4-[6-(2,2,2-trifluoroethoxy)-pyridin-2-yloxy]-phenyl}-ethyl)-amine] | 50 to 79% | 0 to 49% | > 80% | 0 to 49%
CCOc1cccc(Oc2ccc(CCNc3ncnc4nccnc34)cc2)n1 [Compound 12, {2-[4-(6-Ethoxypyridin-2-yloxy)-phenyl]-ethyl}-pteridin-4-yl-amine] | 80 to 100% | 0 to 49% | > 80% | 0 to 49%
N#Cc1cccc(Oc2ccc(CCNc3ncnc4nccnc34)cc2)n1 [Compound 13] | 80 to 100% | 0 to 49% | > 80% | 0 to 49%
N#Cc1ccc(Oc2ccc(CCNc3ncnc4nccnc34)cc2)nc1 [Compound 14] | 80 to 100% | 0 to 49% | > 80% | 0 to 49%
c1cnc(Oc2ccc(CCNc3ncnc4nccnc34)cc2)nc1 [Compound 15] | 80 to 100% | 0 to 49% | > 80% | 0 to 49%
FC(F)(F)COc1ccnc(Oc2ccc(CCNc3ncnc4nccnc34)cc2)n1 [Compound 25] | 80 to 100% | 0 to 49% | > 80% | 0 to 49%
c1cnc(Oc2ccc(CCNc3ncnc4nccnc34)cc2)cn1 [Compound 28] | 80 to 100% | 0 to 49% | > 80% | 0 to 49%
O=C(c1ccc(Oc2ccc(CCNc3ncnc4nccnc34)cc2)nc1)C1CC1 [Compound 30] | 50 to 79% | 0 to 49% | > 80% | 0 to 49%
FC(F)(F)c1ccc(Oc2ccc(CCNc3ncnc4nccnc34)cc2)nn1 [Compound 34] | 80 to 100% | 0 to 49% | > 80% | 0 to 49%
Ic1ccnc(Oc2ccc(CCNc3ncnc4nccnc34)cc2)c1 [Compound 36, N-(2-{4-[(4-iodopyridin-2-yl)oxy]phenyl}ethyl)pteridin-4-amine] | 80 to 100% | 50 to 79% | > 80% | 50 to 79%
Cc1cccc(Oc2ccc(CCNc3ncnc4nccnc34)cc2)n1 [Compound 39] | 80 to 100% | 0 to 49% | > 80% | 0 to 49%
Cc1ccc(Oc2ccc(CCNc3ncnc4nccnc34)cc2)nc1 [Compound 40] | 80 to 100% | 0 to 49% | > 80% | 50 to 79%
Cc1cnc2ncnc(NCCc3ccc(Oc4ccc(C(F)(F)F)cn4)cc3)c2n1 [Compound 41] | 80 to 100% | 0 to 49% | > 80% | 50 to 79%
Cc1ccnc(Oc2ccc(CCNc3ncnc4nccnc34)cc2)c1 [Compound 42] | 80 to 100% | 0 to 49% | > 80% | 80 to 100%
Cc1cccnc1Oc1ccc(CCNc2ncnc3nccnc23)cc1 [Compound 43] | 80 to 100% | 0 to 49% | > 80% | 0 to 49%
CC(F)(F)c1ccnc(Oc2ccc(CCNc3ncnc4nccnc34)cc2)c1 [Compound 44] | 80 to 100% | 0 to 49% | > 80% | 50 to 79%
c1csc(Oc2ccc(CCNc3ncnc4nccnc34)cc2)n1 [Compound 48] | 80 to 100% | 0 to 49% | > 80% | 0 to 49%
COc1cc(CCNc2ncnc3nccnc23)ccc1Oc1ccc(C(F)(F)F)cn1 [Compound 49] | 80 to 100% | 50 to 79% | > 80% | 50 to 79%
COc1cc(CCNc2ncnc3nccnc23)ccc1Oc1ccc(C#N)cn1 [Compound 50] | 80 to 100% | 0 to 49% | > 80% | 0 to 49%
COc1cc(CCNc2ncnc3nccnc23)ccc1Oc1cc(C(F)(F)F)ccn1 [Compound 51] | 80 to 100% | 0 to 49% | > 80% | 50 to 79%

SMILES | pest or weed control at 200 µg/mL [1] | pest or weed control at 200 µg/mL (Cochliobolus sativus) | pest or weed control at 4000 ppm [2] | pest or weed control at 200 µg/mL (Colletotricum lagenarium)
Cc1cnc2ncnc(NCCc3ccc(Oc4ccc(C#N)cn4)cc3)c2n1 [Compound 52] | 80 to 100% | 0 to 49% | > 80% | 0 to 49%
Cc1cnc2ncnc(NCCc3ccc(Oc4ncc(C(F)(F)F)cc4F)cc3)c2n1 [Compound 53] | 80 to 100% | 0 to 49% | > 80% | 80 to 100%
Fc1cc(C(F)(F)F)cnc1Oc1ccc(CCNc2ncnc3nccnc23)cc1 [Compound 54] | 80 to 100% | 0 to 49% | > 80% | 80 to 100%
Cc1cnc2ncnc(NCCc3ccc(Oc4nccc(C(F)(F)F)n4)cc3)c2n1 [Compound 55] | 80 to 100% | 0 to 49% | > 80% | 50 to 79%
c1ccc(-c2nnsc2Oc2ccc(CCNc3ncnc4nccnc34)cc2)cc1 [Compound 58] | 50 to 79% | 0 to 49% | > 80% | 0 to 49%
Cc1nnsc1Oc1ccc(CCNc2ncnc3nccnc23)cc1 [Compound 59] | 0 to 49% | 0 to 49% | > 80% | 0 to 49%
FC(F)(F)c1cccnc1Oc1ccc(CCNc2ncnc3nccnc23)cc1 [Compound 60] | 80 to 100% | 0 to 49% | > 80% | 50 to 79%
Cc1cnc(Oc2ccc(CCNc3ncnc4nccnc34)cc2)s1 [Compound 66] | 80 to 100% | 50 to 79% | > 80% | 80 to 100%
CC(Nc1ncnc2nccnc12)c1ccc(Oc2ccc(C(F)(F)F)cn2)cc1 (stereo not shown) [Compound 67] | 80 to 100% | 0 to 49% | > 80% | 0 to 49%
CC(Nc1ncnc2nccnc12)c1ccc(Oc2nccc(C(F)(F)F)n2)cc1 (stereo not shown) [Compound 68] | 80 to 100% | 0 to 49% | > 80% | 0 to 49%
FC(F)(F)c1ccnc(Oc2ccc(CCNc3ncnc4ncc(Cl)nc34)cc2)n1 [Compound 75] | 0 to 49% | 0 to 49% | > 80% | 0 to 49%
Cc1cnc2ncnc(NCCc3ccc(Oc4cc(C(F)(F)F)ccn4)cc3)c2n1 [Compound 76] | 80 to 100% | 0 to 49% | > 80% | 0 to 49%
CC(Sc1ncnc2nccnc12)c1cccc(C(F)(F)F)c1 (stereo not shown) [Compound 79] | 0 to 49% | 0 to 49% | > 80% | 0 to 49%
CC(Nc1ncnc2nccnc12)c1ccc(Oc2cc(C(F)(F)F)ccn2)cc1 (stereo not shown) [Compound 82] | 80 to 100% | 0 to 49% | > 80% | 0 to 49%
FC(F)(F)c1ccc(Oc2ccc(OCCNc3ncnc4nccnc34)cc2)nc1 [Compound 84] | 80 to 100% | 0 to 49% | > 80% | 80 to 100%
FC(F)(F)c1cc(Cl)nc(Oc2ccc(CCNc3ncnc4nccnc34)cc2)c1 [Compound 90, {2-[4-(6-chloro-4-trifluoromethylpyridin-2-yloxy)-phenyl]-ethyl}-pteridin-4-yl-amine] | 80 to 100% | 0 to 49% | > 80% | 0 to 49%
COCCOc1cc(C(F)(F)F)cc(Oc2ccc(CCNc3ncnc4nccnc34)cc2)n1 [Compound 91, (2-{4-[6-(2-Methoxyethoxy)-4-trifluoromethyl-pyridin-2-yloxy]-phenyl}-ethyl)-pteridin-4-yl-amine] | 80 to 100% | 0 to 49% | > 80% | 0 to 49%
FC(F)(F)c1nc(Oc2ccc(CCNc3ncnc4nccnc34)cc2)ccc1Cl [Compound 92] | 80 to 100% | 0 to 49% | > 80% | 0 to 49%
Fc1cc(CCNc2ncnc3nccnc23)ccc1Oc1cc(C(F)(F)F)ccn1 [Compound 93] | 80 to 100% | 50 to 79% | > 80% | 80 to 100%
COc1ccnc(Oc2ccc(CCNc3ncnc4nccnc34)cc2)c1 [Compound 95] | 80 to 100% | 0 to 49% | > 80% | 80 to 100%
